{"source": "paper PMC8457121", "about": "“From Kinase Inhibitors to Multitarget Ligands as Powerful Drug Leads for Alzheimer's Disease using Protein‐Templated Synthesis” (Angewandte Chemie (International Ed. in English), 2021)", "molecular_target": "BACE1 (Homo sapiens, UniProt P56817)", "sequence (P56817 46-501)": "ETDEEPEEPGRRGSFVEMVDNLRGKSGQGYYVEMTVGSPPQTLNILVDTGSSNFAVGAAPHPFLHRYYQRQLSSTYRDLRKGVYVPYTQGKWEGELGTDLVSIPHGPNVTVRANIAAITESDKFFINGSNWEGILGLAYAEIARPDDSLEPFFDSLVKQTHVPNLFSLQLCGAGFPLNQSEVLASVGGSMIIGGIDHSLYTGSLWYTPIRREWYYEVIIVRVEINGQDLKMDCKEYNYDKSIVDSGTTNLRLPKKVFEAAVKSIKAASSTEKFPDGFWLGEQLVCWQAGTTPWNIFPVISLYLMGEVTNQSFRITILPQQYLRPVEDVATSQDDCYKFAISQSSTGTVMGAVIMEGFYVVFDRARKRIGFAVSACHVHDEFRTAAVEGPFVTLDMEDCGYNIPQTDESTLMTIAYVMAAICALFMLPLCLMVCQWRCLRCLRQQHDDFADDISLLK", "test": "In situ click chemistry with BACE1 as template (LC/MS-SIM)", "settings": "BACE1 0.5 μM, reagents 100 μM, 24 h, room temperature, sodium acetate pH 4.5", "experimental": "confirmed by molecular weight. Control experiments in the absence of BACE1 were set up every time the reactions were performed. Experiment with the presence of BSA (1 mg mL−1) instead of the BACE1 enzyme was performed for […]\nLRRK2 inhibition enzymatic assay. The LRRK2 inhibitors were evaluated by the ThermoFisher company under the following Adapta Assay. The assay itself can be divided into two phases: a kinase reaction phase, and an ADP detection phase. In the kinase reaction phase, all components required for the kinase reaction are added to the well, and the reaction is allowed to incubate for 60 minutes. After the reaction, a detection solution consisting of a europium labeled anti-ADP antibody, an Alexa Fluor™ 647 labeled ADP tracer, and EDTA (to stop the kinase reaction) is added to the assay well. ADP formed by the kinase reaction (in the absence of an inhibitor) will displace the Alexa Fluor 647 labeled ADP tracer from the antibody, resulting in a decrease in the TR-FRET signal. In the presence of an inhibitor, the amount of ADP formed by the kinase reaction is reduced, and the resulting intact antibodytracer interaction results in a high TR-FRET signal. ADP formation is determined by calculating the emission ratio from […]\nThe 2X LRRK2 / ERM (LRRKtide) mixture is prepared in 50 mM Tris pH 8.5, […]\nReaction consists of 3.75 - 70 ng LRRK2 and 200 μM ERM (LRRKtide) in 25 mM […]\nNaN3. […]"}
{"smiles": "O=C(Nc1nc2ccccc2s1)c1ccc(Cn2cc(COc3ccc(C(=O)Nc4nc5ccccc5s4)cc3)nn2)cc1", "note": "[compound 8]", "values": [{"measurement": "Triazole formation from building blocks in presence of BACE1", "result": "observed"}]}
